“Also recorded” adds a separate entry of the source.
Key:
[1] = system: TF-induced platelet aggregation in human platelet-rich plasma; assay: TF-induced platelet aggregation assay (time delay / lag time) in human platelet-rich plasma; format: cell-based; details: human PRP; for time delay of platelet aggregation: 0 μM = 75 seconds; for 2×Base value (concentration required to double the time for TF-induced platelet aggregation): time delay of TF-induced platelet aggregation
Experimental: The remaining samples were then centrifuged at […] for 10 min to obtain platelet-poor plasma (PPP). Platelet count was adjusted to 2-2.5×10^8 cells/ml with platelet-poor plasma.
PRP (275 μl) sample was briefly mixed with 25 μl of 36 mg/ml pefabloc. Various compounds (in a volume of 1.2 μl) were added and incubated at 37° C. for 3 min in a cylindrical glass cuvette. Platelet aggregation was induced by 4 μl of Innovin®-CaCl2 mixture and measured under continuous stirring at 1000 rpm in a PA-200 platelet aggregation analyzer (Kowa, Tokyo, Japan). Platelet-poor plasma was used as a reference. Platelet aggregation curves defined by changes in light transmission over time were recorded for 15 min. The lag time was defined as the time from CaCl2 addition until the light transmittance reached 1%. The concentration of Innovin® and CaCl2 was adjusted for each sample so that the average control lag time was from 50 to 70 seconds.

[2] = system: thrombus formation in carotid artery; assay: Rabbit ECAT model; format: in vivo; details: i.v. infusion, drug concentration maintaining total blood flow at 80% of baseline
Experimental: Briefly, male, New Zealand, white rabbits were anesthetized with ketamine (50 mg/kg+50 mg/kg/h i.m.) and xylazine (10 mg/kg+10 mg/kg/h i.m.). These anesthetics were supplemented as needed. An electromagnetic flow probe was placed on a segment of an isolated carotid artery to monitor blood flow. Thrombus formation was induced by electrical stimulation of the carotid artery for 3 min at 4 mA using an external stainless steel bipolar electrode. […] Plasma concentrations were determined in blood samples taken at the end of the experiment by liquid chromatography-tandem mass spectrometry.
Carotid blood flow was measured continuously over the 90-min period of thrombus formation and total carotid blood flow was calculated as an area under the carotid blood flow-time curve. Preservation of total CBF relative to sustained baseline flow was used to assess antithrombotic activity. The drug concentrations which maintained total blood flow at 80% of baseline (ED80) was the common comparator among antithrombotic agents.

Row | SMILES | effect on the time delay of TF-induced platelet aggregation (in words) [1] | ED80 [2] | 2×Base value (concentration required to double the time for TF-induced platelet aggregation) [1] | also measured
1 | NCc1ccccc1-n1nc(C(F)(F)F)cc1C(=O)Nc1ccc(-c2ccccc2S(N)(=O)=O)cc1F [1-(2-aminomethylphenyl)-3-trifluoromethyl-N-[3-fluoro-2′-(aminosulfonyl)[1,1′-biphenyl)]-4-yl]-1H-pyrazole-5-carboxyamide] | dose-dependent effects | – | – | –
2 | COc1cc([C@@H]2Nc3ccc(C(=N)N)cc3[C@H]3c4ccccc4C[C@H]32)c(-c2ccc(C(=O)O)cc2)cc1O [Compound A, 2′-((6R,6aR,11bR)-2-Carbamimidoyl-5,6a,7,11b-tetrahydro-6H-indeno[2,1-c]quinolin-6-yl)-5′-hydroxy-4′-methoxy-biphenyl-4-carboxylic acid] | concentration-dependent effect; also recorded: Dose-dependent effect | 1100 nM | 1.25 µM | time delay of platelet aggregation ([1]; 1.26 μM): 175 s; time delay of platelet aggregation ([1]; 4.0 μM): 286 s; time delay of platelet aggregation ([1]; 12.6 μM): 671 s; time delay of platelet aggregation ([1]; 25.2 μM): 865 s
3 | CS(=O)(=O)c1ccccc1-c1ccc(NC(=O)c2cc(C(F)(F)F)nn2-c2cccc(CN)c2)c(F)c1 [Compound B, 1-[3-(aminomethyl)phenyl]-N-[3-fluoro-2′-(methylsulfonyl)[1,1′-biphenyl]-4-yl]-3-(trifluoromethyl)-1H-pyrazole-5-carboxamide] | – | 400 nM | – | –
4 | CC(C)CC(=O)Nc1cc(-c2ccc(C(N)=O)cc2C(=O)O)cc([C@@H]2C[C@](C)(c3ccccc3)c3cc(C(=N)N)ccc3N2)c1 [Compound C, 3′-((2S,4R)-6-Carbamimidoyl-4-methyl-4-phenyl-1,2,3,4-tetrahydro-quinolin-2-yl)-4-carbamoyl-5′-(3-methyl-butyrylamino)-biphenyl-2-carboxylic acid] | barely showed any effect; also recorded: No effect | 800 nM | 26 µM | effect on TF-induced platelet aggregation at high dose (in words) ([1]; 40 μM): weak efficacy
5 | CC(C)(C)c1ccccc1Oc1ncccc1NC(=O)Nc1ccc(OC(F)(F)F)cc1 [Compound F, 1-[2-(2-tert-Butyl-phenoxy)-pyridin-3-yl]-3-(4-trifluoromethoxy-phenyl)-urea] | no effect | – | ~0 µM | –
6 | CNc1ncnc2c1ncn2[C@H]1C[C@H](OP(=O)(O)O)[C@@H](COP(=O)(O)O)O1 [N6-methyl-2′-deoxyadenosine-3′,5′-bisphosphate, reference compound] | no effect | – | – | –
7 | CSCCNc1nc(SCCC(F)(F)F)nc2c1ncn2[C@@H]1O[C@H](COP(=O)(O)OP(=O)(O)C(Cl)(Cl)P(=O)(O)O)[C@@H](O)[C@H]1O [cangrelor, reference compound] | no effect | – | – | –

— US20080026474A1, “ASSAY FOR DIFFERENTIATING COMPOUNDS THAT MODULATE THE EXTRINSIC AND/OR INTRINSIC COAGULATION PATHWAYS” (Bristol-Myers Squibb Company, priority 2006, published 2008)
